The supplement of paper PMC11208160

Test: recombinant barcode read abundance after kanamycin selection (control-corrected) (log10(CPM+1)); higher = more efficient recombination; sequences stand for … in AGTGCAGAGAAAATCGGCCAGTTTTCTCTGCCTGCAGTCCGCATGCCGT…AGATTTATGCAGCGGACTGCCTTTCTCCCAAAGTGATAAACCGGACAGTATCATGGACCGGTTTTCCCGGTAATCCGTATTTGCAAGGTTGGTTTCACT; site = the 11-nt target
Protocol: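 Pooled E. coli target-specificity screen for the IS621 bridge recombinase. Each library plasmid pairs an 11-nt target (CT core) with a bridge RNA whose target-binding loop (9-nt LTG + 4-nt RTG) is reprogrammed; the rest of the 177-nt WT IS621 bridge RNA scaffold is fixed. The plasmid is co-electroporated with a WT donor plasmid; recombinase is induced with 0.1 mM IPTG and recombinants are selected on kanamycin. Recombinant barcodes are sequenced, converted to CPM, averaged over two biological replicates and corrected by the unselected control CPM. Molecule = full bridge RNA written as DNA: LTG = specificity nt 1-9, RTG = reverse complement of specificity nt 8-11, in the WT scaffold.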
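Also: IS621 recombinase and bridge RNA in Escherichia coli cells.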

Sequence	recombinant barcode read abundance (log10)
ACGATATCTTGGGTTCTAACCTGTTGCCT (site ATGATATCTAG)	0.0859
ACGATCGCTTGGGTTCTAACCTGTTGCCT (site ACGAACGCTAG)	0.08
ACGATCGCTTGGGTTCTAACCTGTTGCCT (site ACGACCGCTAG)	0.197
ACGATCGCTTGGGTTCTAACCTGTTGCCT (site ACGAGCGCTAG)	0.12
ACGATCGCTTGGGTTCTAACCTGTTGCCT (site ACGATCGCTAG)	1.25
ACGATTCCTTGGGTTCTAACCTGTTGCCT (site AAGATTCCTAG)	0.132
ACGATTCCTTGGGTTCTAACCTGTTGCCT (site ACGATTCCTAG)	0.355
ACGATTCCTTGGGTTCTAACCTGTTGCCT (site AGGATTCCTAG)	0.101
ACGATTCCTTGGGTTCTAACCTGTTGCCT (site ATGATTCCTAG)	0.0978
ACGCACACTTGGGTTCTAACCTGTTGCCT (site ACGCACACTAG)	0.214
ACGCACACTTGGGTTCTAACCTGTTGCCT (site CCGCACACTAG)	0.182
ACGCACACTTGGGTTCTAACCTGTTGCCT (site GCGCACACTAG)	0.236
ACGCACACTTGGGTTCTAACCTGTTGCCT (site TCGCACACTAG)	0.233
ACGCACCCTTGGGTTCTAACCTGTTGCCA (site ACGAGCCCTTG)	0.123
ACGCACCCTTGGGTTCTAACCTGTTGCCA (site ACGCACCCTTG)	0.379
ACGCACGCTTGGGTTCTAACCTGTTGCGG (site ACACACCCTCC)	0.0809
ACGCACGCTTGGGTTCTAACCTGTTGCGG (site ACGCACGCTCC)	0.979
ACGCCGACTTGGGTTCTAACCTGTTGCCT (site ACGCCGACTAG)	0.432
ACGCCGACTTGGGTTCTAACCTGTTGCCT (site ACGCGGACTAG)	0.285
ACGCGAGCTTGGGTTCTAACCTGTTGCCG (site ACGCGAGCTCA)	0.209
ACGCGAGCTTGGGTTCTAACCTGTTGCCG (site ACGCGAGCTCC)	0.345

Sequence	recombinant barcode read abundance (log10)
ACGCGAGCTTGGGTTCTAACCTGTTGCCG (site ACGCGAGCTCG)	0.288
ACGCGAGCTTGGGTTCTAACCTGTTGCCG (site ACGCGAGCTCT)	0.215
ACGCGAGCTTGGGTTCTAACCTGTTGCTG (site ACGCGAGCTCA)	0.0871
ACGCGAGCTTGGGTTCTAACCTGTTGCTG (site ACGCGAGCTCC)	0
ACGCGAGCTTGGGTTCTAACCTGTTGCTG (site ACGCGAGCTCG)	0.14
ACGCGAGCTTGGGTTCTAACCTGTTGCTG (site ACGCGAGCTCT)	0.187
ACGCGTCCTTGGGTTCTAACCTGTTGCCG (site ACGCGTCCTCG)	0.263
ACGCGTCCTTGGGTTCTAACCTGTTGCCG (site TCGCGTCCTCG)	0.355
ACGCTAGCTTGGGTTCTAACCTGTTGCCT (site ACGCTAGCTAG)	0.357
ACGCTAGCTTGGGTTCTAACCTGTTGCCT (site CCGCTAGCTAG)	0.138
ACGCTAGCTTGGGTTCTAACCTGTTGCCT (site GCGCTAGCTAG)	0.226
ACGCTAGCTTGGGTTCTAACCTGTTGCCT (site TCGCTAGCTAG)	0.0462
ACGCTGGCTTGGGTTCTAACCTGTTGCCT (site ACACTGGCTAG)	0.386
ACGCTGGCTTGGGTTCTAACCTGTTGCCT (site ACCCTGGCTAG)	0.0594
ACGCTGGCTTGGGTTCTAACCTGTTGCCT (site ACGCTGGCTAG)	0.381
ACGCTGGCTTGGGTTCTAACCTGTTGCCT (site ACTCTGGCTAG)	0.0925
ACGGGATCTTGGGTTCTAACCTGTTGCCT (site ACGGGATCTAG)	1.57
ACGGGATCTTGGGTTCTAACCTGTTGCCT (site CCGGGATCTAG)	0.24
ACGGGATCTTGGGTTCTAACCTGTTGCCT (site GCGGGATCTAG)	0.129
ACGGGATCTTGGGTTCTAACCTGTTGCCT (site TCGGGATCTAG)	0.0975
ACGGGTCCTTGGGTTCTAACCTGTTGCAG (site ACGGGTCCTCT)	3.09

Sequence	recombinant barcode read abundance (log10)
ACGGGTCCTTGGGTTCTAACCTGTTGCAG (site GGCAAGGCTAG)	0.0641
ACGGGTTCTTGGGTTCTAACCTGTTGCCT (site ACGGGTTCTAG)	2.46
ACGGGTTCTTGGGTTCTAACCTGTTGCCT (site TCCGGTTCTAG)	0.107
ACGGTCACTTGGGTTCTAACCTGTTGCCT (site AAGGTCACTAG)	0.331
ACGGTCACTTGGGTTCTAACCTGTTGCCT (site ACGGTCACTAG)	2.95
ACGGTCACTTGGGTTCTAACCTGTTGCCT (site AGGGTCACTAG)	0.264
ACGGTCACTTGGGTTCTAACCTGTTGCCT (site ATGGTCACTAG)	0.869
ACGGTGACTTGGGTTCTAACCTGTTGCCT (site ACGGTGACTAG)	2.24
ACGGTGACTTGGGTTCTAACCTGTTGCCT (site CCGGTGACTAG)	0.298
ACGGTGACTTGGGTTCTAACCTGTTGCCT (site GCGGTGACTAG)	0.0376
ACGGTGACTTGGGTTCTAACCTGTTGCCT (site TCGGTGACTAG)	0.0684
ACGTAGACTTGGGTTCTAACCTGTTGCAG (site ACAGAGACTCT)	0.145
ACGTAGACTTGGGTTCTAACCTGTTGCAG (site ACGTAGACTCT)	0.802
ACGTCCACTTGGGTTCTAACCTGTTGCCA (site ACGTCCACTTG)	0.148
ACGTCCACTTGGGTTCTAACCTGTTGCCA (site GGAAGGTCTAT)	0.025
ACGTCCACTTGGGTTCTAACCTGTTGCCT (site ACGTCCACTAG)	0.0313
ACGTCCACTTGGGTTCTAACCTGTTGCCT (site CCGTCGACTAG)	0.317
ACGTCGTCTTGGGTTCTAACCTGTTGCCT (site AAGTCGTCTAG)	0.0262
ACGTCGTCTTGGGTTCTAACCTGTTGCCT (site ACGTCGTCTAG)	0.0697
ACGTCGTCTTGGGTTCTAACCTGTTGCCT (site AGGTCGTCTAG)	0.102
ACGTCGTCTTGGGTTCTAACCTGTTGCCT (site ATGTCGTCTAG)	0.0865

Sequence	recombinant barcode read abundance (log10)
ACGTTACCTTGGGTTCTAACCTGTTGCCT (site ACGATACCTAG)	0.331
ACGTTACCTTGGGTTCTAACCTGTTGCCT (site ACGTTACCTAG)	0.501
ACGTTGCCTTGGGTTCTAACCTGTTGCCT (site ACATTGCCTAG)	0.188
ACGTTGCCTTGGGTTCTAACCTGTTGCCT (site ACCTTGCCTAG)	0.0523
ACGTTGCCTTGGGTTCTAACCTGTTGCCT (site ACGTTGCCTAG)	0.316
ACGTTGCCTTGGGTTCTAACCTGTTGCCT (site ACTTTGCCTAG)	0.0271
ACTACTCCTTGGGTTCTAACCTGTTGCAG (site ACTACTCCTCT)	0.461
ACTACTCCTTGGGTTCTAACCTGTTGCAG (site ACTGGTCCTCT)	0.183
ACTAGAGCTTGGGTTCTAACCTGTTGCCT (site ACAAGAGCTAG)	0.122
ACTAGAGCTTGGGTTCTAACCTGTTGCCT (site ACCAGAGCTAG)	0.268
ACTAGAGCTTGGGTTCTAACCTGTTGCCT (site ACGAGAGCTAG)	0.197
ACTAGAGCTTGGGTTCTAACCTGTTGCCT (site ACTAGAGCTAG)	0.198
ACTAGCTCTTGGGTTCTAACCTGTTGCCT (site ACTAGCTCTAG)	0.356
ACTAGCTCTTGGGTTCTAACCTGTTGCCT (site ACTTGCTCTAA)	0.0142
ACTATGACTTGGGTTCTAACCTGTTGCTT (site ACTATGACTAA)	0.75
ACTATGACTTGGGTTCTAACCTGTTGCTT (site GACTATCCTCG)	0.0905
ACTATGTCTTGGGTTCTAACCTGTTGCCA (site ACTATGTCTTG)	0.147
ACTATGTCTTGGGTTCTAACCTGTTGCCA (site CCTATGTCTTA)	0.00838
ACTCAGGCTTGGGTTCTAACCTGTTGCCG (site ACAGAGGCTCG)	0.138
